In EPA's CvTdb concentration-time database:

What was measured:
Experiment in all cases: concentration in plasma after dosing
[1] = test system: Rat; conditions: dosed: Anthraquinone, 40 mg/kg, oral, Male, Harlan Sprague Dawley
[2] = test system: Rat; conditions: dosed: Anthraquinone, 400 mg/kg, oral, Male, F344
[3] = test system: Rat; conditions: dosed: Anthraquinone, 100 mg/kg, oral, Male, F344
[4] = test system: Rat; conditions: dosed: Anthraquinone, 100 mg/kg, oral, Female, Harlan Sprague Dawley
[5] = test system: Rat; conditions: dosed: Anthraquinone, 100 mg/kg, oral, Female, Harlan Sprague Dawley; remark: listed apart in the source
[6] = test system: Rat; conditions: dosed: Anthraquinone, 40 mg/kg, oral, Female, Harlan Sprague Dawley
[7] = test system: Rat; conditions: dosed: Anthraquinone, 100 mg/kg, oral, Female, Harlan Sprague Dawley; remark: listed apart in the source
[8] = test system: Rat; conditions: dosed: Anthraquinone, 40 mg/kg, oral, Female, Harlan Sprague Dawley; remark: listed apart in the source
[9] = test system: Rat; conditions: dosed: Anthraquinone, 40 mg/kg, oral, Female, F344
[10] = test system: Rat; conditions: dosed: Anthraquinone, 400 mg/kg, oral, Male, F344; remark: listed apart in the source
[11] = test system: Rat; conditions: dosed: Anthraquinone, 100 mg/kg, oral, Male, F344; remark: listed apart in the source
[12] = test system: Rat; conditions: dosed: Anthraquinone, 400 mg/kg, oral, Male, F344; remark: listed apart in the source
[13] = test system: Rat; conditions: dosed: Anthraquinone, 40 mg/kg, oral, Female, F344; remark: listed apart in the source
[14] = test system: Rat; conditions: dosed: Anthraquinone, 400 mg/kg, oral, Male, F344; remark: listed apart in the source
[15] = test system: Rat; conditions: dosed: Anthraquinone, 40 mg/kg, oral, Male, Harlan Sprague Dawley; remark: listed apart in the source
[16] = test system: Rat; conditions: dosed: Anthraquinone, 40 mg/kg, oral, Female, Harlan Sprague Dawley; remark: listed apart in the source
[17] = test system: Rat; conditions: 24 h; dosed: Anthraquinone; 100 mg/kg; oral; Male; F344
[18] = test system: Rat; conditions: dosed: Anthraquinone, 400 mg/kg, oral, Male, F344; remark: listed apart in the source
[19] = test system: Rat; conditions: dosed: Anthraquinone, 40 mg/kg, oral, Female, Harlan Sprague Dawley; remark: listed apart in the source
[20] = test system: Rat; conditions: dosed: Anthraquinone, 100 mg/kg, oral, Female, F344
[21] = test system: Rat; conditions: dosed: Anthraquinone, 100 mg/kg, oral, Male, F344; remark: listed apart in the source
[22] = test system: Rat; conditions: dosed: Anthraquinone, 100 mg/kg, oral, Male, F344; remark: listed apart in the source
[23] = test system: Rat; conditions: 24 h; dosed: Anthraquinone; 40 mg/kg; oral; Male; F344
[24] = test system: Rat; conditions: dosed: Anthraquinone, 40 mg/kg, oral, Female, Harlan Sprague Dawley; remark: listed apart in the source
[25] = test system: Rat; conditions: dosed: Anthraquinone, 100 mg/kg, oral, Male, F344; remark: listed apart in the source
[26] = test system: Rat; conditions: dosed: Anthraquinone, 100 mg/kg, oral, Male, F344; remark: listed apart in the source
[27] = test system: Rat; conditions: dosed: Anthraquinone, 100 mg/kg, oral, Male, F344; remark: listed apart in the source
[28] = test system: Rat; conditions: dosed: Anthraquinone, 100 mg/kg, oral, Male, F344; remark: listed apart in the source
[29] = test system: Rat; conditions: dosed: Anthraquinone, 100 mg/kg, oral, Female, Harlan Sprague Dawley; remark: listed apart in the source
[30] = test system: Rat; conditions: dosed: Anthraquinone, 40 mg/kg, oral, Male, Harlan Sprague Dawley; remark: listed apart in the source
[31] = test system: Rat; conditions: dosed: Anthraquinone, 40 mg/kg, oral, Male, Harlan Sprague Dawley; remark: listed apart in the source
[32] = test system: Rat; conditions: dosed: Anthraquinone, 100 mg/kg, oral, Male, F344; remark: listed apart in the source
[33] = test system: Rat; conditions: 24 h; dosed: Anthraquinone; 100 mg/kg; oral; Male; F344; remark: listed apart in the source
[34] = test system: Rat; conditions: dosed: Anthraquinone, 40 mg/kg, oral, Female, Harlan Sprague Dawley; remark: listed apart in the source
[35] = test system: Rat; conditions: dosed: Anthraquinone, oral
[36] = test system: Rat; conditions: dosed: Anthraquinone, 100 mg/kg, oral, Female, F344; remark: listed apart in the source

O=C1c2ccccc2C(=O)c2ccccc21 [Anthraquinone]
Conditions	concentration in plasma [ng/mL]
[1], 2 h	99
[1], 12 h	242
[2], 2 h	352
[2], 12 h	2500
[3], 0.5 h	27
[3], 24 h	349
[4], 2 h	192
[4], 12 h	818
[5], 4 h	262
[5], 8 h	595
[6], 4 h	136
[6], 8 h	280
[7], 4 h	255
[7], 8 h	992
[8], 2 h	90
[8], 12 h	224
[9], 1 h	36
[9], 18 h	157
[10], 1 h	129
[10], 18 h	2320
[11], 2 h	120
[11], 12 h	671
[12], 0.5 h	163
[12], 24 h	1970
[13], 1 h	61
[13], 18 h	131
[14], 0.5 h	148
[14], 24 h	2120
[15], 4 h	131
[15], 8 h	293
[16], 1 h	57
[16], 18 h	124
[18], 1 h	345
[18], 18 h	2880
[19], 2 h	128
[19], 12 h	238
[20], 1 h	61
[20], 18 h	538
[21], 4 h	205
[21], 8 h	522
[22], 0.5 h	28
[22], 24 h	197
[24], 1 h	65
[24], 18 h	87
[25], 1 h	55
[25], 18 h	429
[26], 4 h	323
[26], 8 h	758
[27], 2 h	233
[27], 12 h	719
[28], 0.5 h	41
[28], 24 h	433
[29], 2 h	210
[29], 12 h	880
[30], 4 h	117
[30], 8 h	241
[31], 2 h	101
[31], 12 h	255
[32], 1 h	72
[32], 18 h	596
[34], 4 h	111
[34], 8 h	255
[36], 1 h	63
[36], 18 h	469

Conditions	concentration in plasma [ng/mL]
[17]	259
[23]	66
[33]	210

concentration in plasma [ng/mL], [35]
Conditions	0.5 h	1 h	2 h	4 h	8 h	12 h	18 h	24 h
40 mg/kg, Female, F344	–	30	–	–	–	–	191	–
40 mg/kg, Female, Harlan Sprague Dawley	–	61	154	149	249	224	103	65
40 mg/kg, Male, F344	–	–	–	–	–	–	–	26
40 mg/kg, Male, Harlan Sprague Dawley	–	–	87	101	203	204	–	–
100 mg/kg, Female, F344	–	66	–	–	–	–	652	–
100 mg/kg, Female, Harlan Sprague Dawley	–	–	127	232	721	610	–	–
100 mg/kg, Male, F344	–	63	157	259	611	696	415	261
400 mg/kg, Male, F344	106	235	285	–	–	2590	2700	1940
